Assay results taken from patent US7576095B2, “Therapeutic agents” (Astrazeneca AB, priority 2005, dated 2009).

Key:
CB1 receptor = molecular target: T1, CB1 receptor (Homo sapiens, UniProt P21554); experiment: [35S]-GTPγS binding assay, membranes of cells stably transfected with the CB1 gene, inhibition of agonist CP55940 (EC80); format: biochemical; conditions: half maximal inhibition of GTPγS binding; EC80 concentration of CP55940
T1 construct: expressed in transfected cells
Protocol: Compounds of the present invention are active against the receptor product of the CB1 gene. The affinity of the compounds of the invention for central cannabinoid receptors is demonstrable in methods described in Devane et al , Molecular Pharmacology, 1988, 34,605 or those described in WO01/70700 or EP 656354. Alternatively the assay may be performed as follows.
10 μg of membranes prepared from cells stably transfected with the CB1 gene were suspended in 200 μl of 100 mM NaCl, 5 mM MgCl2, 1 mM EDTA, 50 mM HEPES (pH 7.4), 1 mM DTT, 0.1% BSA and 100 μM GDP. To this was added an EC80 concentration of agonist (CP55940), the required concentration of test compound and 0.1 μCi [^35S]-GTPγS. The reaction was allowed to proceed at 30° C. for 45 min. […] Filters were then covered with scintilant and counted for the amount of [^35S]-GTPγS retained by the filter.
Activity is measured in the absence of all ligands (minimum activity) or in the presence of an EC80 concentration of CP55940 (maximum activity). […] At various concentrations of novel ligand, activity is calculated as a percentage of the maximum activity and plotted. The data are fitted using the equation y=A+((B-A)/1+((C/x) UD)) and the IC50 value determined as the concentration required to give half maximal inhibition of GTPγS binding under the conditions used.

[1] = Solubility in dimethyl sulfoxide; format: physicochemical
Source text: The compounds of the present invention have improved solubility in organic solvents compared to compounds in the prior art. […] It would be expected that this increase in solubility in organic solvents would lead to improvements in bioavailability and ease of manufacture and formulation.

T1 sequence (P21554 whole entry): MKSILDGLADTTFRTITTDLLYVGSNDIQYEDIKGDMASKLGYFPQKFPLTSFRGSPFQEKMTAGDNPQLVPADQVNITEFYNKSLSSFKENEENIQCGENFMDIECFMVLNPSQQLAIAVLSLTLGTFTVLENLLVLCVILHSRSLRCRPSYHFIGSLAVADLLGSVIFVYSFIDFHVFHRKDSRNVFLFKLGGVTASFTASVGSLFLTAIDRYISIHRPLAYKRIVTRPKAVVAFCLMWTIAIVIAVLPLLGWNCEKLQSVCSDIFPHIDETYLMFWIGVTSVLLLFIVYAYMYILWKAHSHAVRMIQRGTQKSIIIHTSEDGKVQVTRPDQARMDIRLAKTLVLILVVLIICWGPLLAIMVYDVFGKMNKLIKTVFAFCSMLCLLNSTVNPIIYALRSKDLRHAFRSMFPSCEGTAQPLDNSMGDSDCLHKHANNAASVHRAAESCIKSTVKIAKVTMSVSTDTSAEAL

| IC50 (CB1 receptor) [nM] | solubility in dimethyl sulfoxide [1] | Compound |
| --- | --- | --- |
| 0.98 | – | Cc1c2c(n(-c3ccccc3Cl)c1-c1ccc(OS(=O)(=O)CCC(F)(F)F)cc1)CCN(N1CCCCC1)C2=O [Example 1, 3,3,3-Trifluoropropane-1-sulfonic acid 4-[1-(2-chlorophenyl)-3-methyl-4-oxo-5-piperidin-1-yl-4,5,6,7-tetrahydro-1H-pyrrolo[3,2-c]pyridine-2-yl]phenyl ester] |
| – | insoluble | Cc1c2c(n(-c3ccc(Cl)cc3Cl)c1-c1ccc(Cl)cc1)CCN(N1CCCCC1)C2=O [Example 19 of WO03/027114, 2-(4-chlorophenyl)-1-(2,4-dichlorophenyl)-3-methyl-5-(1-piperidinyl)-1,5,6,7-tetrahydro-4H-pyrrolo-[3,2-c]pyridin-4-one] |
